# In paper PMC12418948, “Intranasal Administration of KCNN2 Blocking Peptide Improves Deficits in Cognitive Flexibility in Mouse Model of Fetal Alcohol Spectrum Disorders” (International Journal of Neuropsychopharmacology, 2025):
# Positions of bridges follow the written chain, without caps; N, C: chain ends. Residues, ends and D or L forms follow the SMILES beside them. No end group written: not given here.
# What was measured:
# [1] = system: KCNN (SK) channel; settings: cited from earlier work
# [2] = pregnant CD-1 mice, i.p. 4.0 g/kg/day 25% ethanol at E16 and E17; from 30 minutes after injection at E16 to 1 hour after injection at E17; cited from earlier work
# Experimental: All mice (CD-1) used in this study were purchased from Charles River Laboratories and were maintained in-house on a light–dark cycle (lights on 6:00 AM to 6:00 PM) at a constant temperature (22 ± 1°C). Pregnant mice received i.p. injections of 25% ethanol in PBS at 4.0 g/kg/day or PBS only as the control at embryonic day (E) 16 and E17. The dam’s blood alcohol concentration ranges from approximately 140 to 300 mg/dL (from 30 minutes after injection at E16 to 1 hour after injection at E17).[35] All procedures were approved by the institutional animal care and use committee of the Children’s Nat ...
# [3] = i.p. administration, PAE mice; cited from earlier work
# Description: KCNN2 plays a key role in regulating neuronal excitability by controlling the medium afterhyperpolarization.[20] Previous studies have shown that KCNN2 blockers have therapeutic effects to improve learning and memory in several mouse and rat models of neuropsychiatric disorders associated with increased KCNN2 expression.[21–24]
# [4] = molecular target: human KCNN2 (Homo sapiens, UniProt Q9H2S1); assay: Thallium flux assay, KCNN2 channel block; assay type: cell-based; settings: HEK293 stably expressing human KCNN2; thallium flux, FLIPR Potassium Assay Kit, FLIPR TETRA; 4 concentrations, n = 4; 0% = 1 μM A23187, 100% = 3 μM UCL1684
# Experimental: The effect of tamapin and Lei-Dab7 to block the KCNN2 channel was assessed by the thallium flux (potassium ion surrogate) assay using FLIPR Potassium Assay KIT (Molecular Devices, CA) and a FLIPR TETRA fluorescence imaging plate reader (Molecular Devices, CA). Human embryonic kidney (HEK) 293 cell line stably expressing human KCNN2 (Charles River, MA) were plated on BioCoat Poly-D-Lysine 384-well Black/Clear Plates (BD Biosciences, NJ) at 15 000 to 30 000 cells per well and incubated at 37°C overnight or until cells form near confluent monolayer. A baseline fluorescence was recorded during the pre-incubation period, followed by activation in the stimulus buffer (K^+-free buffer with 5 mM Tl^+). The effects of tamapin and Lei-Dab7 on KCNN2 to inhibit KCNN2 channel were evaluated at 4 different concentrations (n = 4) each, based on fluorescence changes due to the treatments. The signal elicited by the respective positive control agonist [1 μM A23187 (Tocris, UK)] was set to 0% inhibition, and the signal in the presence of the respective positive control antagonists [3 μM UCL1684 (Tocris, UK)] was set to 100% inhibition. The IC50 values were defined as the concentration at which the percent inhibition equals 50.
# To determine the dose of Lei-Dab7 to be tested, we compared the effect of Lei-Dab7 and tamapin in blocking human KCNN2 expressed in HEK293 cells using a thallium-based potassium ion channel assay. […] Based on the effective dose of tamapin in mitigating motor skill–learning deficits in PAE mice (15 μg/kg body weight via i.p.)[17] and higher brain uptake of therapeutics by intranasal delivery than by i.p. delivery, we chose a dose of 3.0 μg/kg body weight to test the effect of intranasal administration of Lei-Dab7.
# Supplementary Figure 3. Concentration-response relationships of Lei-Dab7 and Tamapin on the Inhibition of KCNN2 channels. (A, B) The concentration-response relationships of Lei-Dab7 (A) and Tamapin (B) on the inhibition of KCNN2 (SK2) channels examined by the thallium flux assay are presented. […]
# [5] = system: rat; set-up: method as in 2 sources, one per row (each row's own in cited_ref): ref 82 = [82]; PMID 15985330; doi:10.1016/j.neulet.2005.05.050; 82. Deschaux O , Bizot JC . Apamin produces selective improvements of learning in rats . Neurosci Lett. 2005; 386 : 5 – 8 . 10.1016/j.neulet.2005.05.050 15985330 ||| ref 26, 82, 83 = [26]; PMID 18561910; doi:10.1016/j.ejphar.2008.05.019; 26. Mpari B , Sreng L , Regaya I , Mourre C . Small-conductance Ca(2+)-activated K(+) channels: heterogeneous affinity in rat brain structures and cognitive modulation by specific blockers . Eur J Pha || [82]; PMID 15985330; doi:10.1016/j.neulet.2005.05.050; 82. Deschaux O , Bizot JC . Apamin produces selective improvements of learning in rats . Neurosci Lett. 2005; 386 : 5 – 8 . 10.1016/j.neulet.2005.05.050 15985330 || [83]; PMID 9148239; doi:10.1016/s0304-3940(97)13367-5; 83. Deschaux O , Bizot JC , Goyffon M . Apamin improves learning in an object recognition task in rats . Neurosci Lett. 1997; 222 : 159 – 162 . 10.1016/s0304-3940(97)13367-5 9148239; settings: cited from earlier work
# [6] = system: KCNN2; settings: compared with Lei-Dab7; cited from earlier work
# Description: KCNN2 plays a key role in regulating neuronal excitability by controlling the medium afterhyperpolarization.[20] Previous studies have shown that KCNN2 blockers have therapeutic effects to improve learning and memory in several mouse and rat models of neuropsychiatric disorders associated with increased KCNN2 expression.[21–24] […] In the current study, we used another KCNN2 blocker, Lei-Dab7 (a synthetic derivative of leiurotoxin), a peptide isolated from the venom of the yellow scorpion (L. quinquestriatus hebraeus). […] We evaluated intranasal administ ... || Taken together, our findings advocate for the therapeutic potential of Lei-Dab7 or other KCNN2 blockers for FASD and possibly other neurodevelopmental diseases that similarly involve KCNN2 upregulation, such as Angelman syndrome.[21] Lei-Dab7 stands out for its high potency and specificity in blocking the KCNN2 channel. […] Despite outstanding properties, Lei-Dab7’s bioavailability, efficacy, and toxicity as a the ...
# [7] = system: older adults affected by Alzheimer disease or mild cognitive impairment; settings: intranasal; older adults with Alzheimer disease or mild cognitive impairment; cited from earlier work
# Description: (§1) The potential of intranasal delivery in treating a broad spectrum of neurological disorders, especially those related to memory and cognition, is noteworthy.[28] Historically, intranasal administration has gained attention in clinical trials as an effective delivery method, especially for small molecules ...
# [8] = intranasal vs subcutaneous or intramuscular administration; cited from earlier work
# Description: as §1
# [9] = system: neurodevelopmental disorders such as autism spectrum disorder; settings: nasal application; cited from earlier work
# Description: as §1
# Sequence of human KCNN2 (Q9H2S1 whole entry): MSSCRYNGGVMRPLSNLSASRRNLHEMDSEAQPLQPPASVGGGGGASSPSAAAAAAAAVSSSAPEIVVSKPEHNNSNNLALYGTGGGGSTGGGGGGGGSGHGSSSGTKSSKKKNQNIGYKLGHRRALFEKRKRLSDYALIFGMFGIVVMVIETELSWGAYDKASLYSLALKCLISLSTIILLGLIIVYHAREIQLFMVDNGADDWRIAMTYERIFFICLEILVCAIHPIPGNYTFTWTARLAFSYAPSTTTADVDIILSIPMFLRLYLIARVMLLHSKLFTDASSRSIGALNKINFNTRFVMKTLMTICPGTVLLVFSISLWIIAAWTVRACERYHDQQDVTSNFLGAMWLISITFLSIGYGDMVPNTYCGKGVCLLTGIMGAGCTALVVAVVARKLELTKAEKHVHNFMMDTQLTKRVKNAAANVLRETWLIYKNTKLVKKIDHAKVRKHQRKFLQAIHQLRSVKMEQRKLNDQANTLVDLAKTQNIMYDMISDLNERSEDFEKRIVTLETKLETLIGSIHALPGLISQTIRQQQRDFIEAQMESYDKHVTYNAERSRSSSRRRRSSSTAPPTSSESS
compound,measurement,setting,value
c1cc2cc(c1)C[n+]1ccc(c3ccccc31)NCc1ccc(cc1)CNc1cc[n+](c3ccccc13)C2 [UCL 1684],KCNN (SK) channel blocking specificity,[1],nonspecific KCNN (SK) channel blockers
c1ccc2c(c1)c1cc[n+]2CCCCC[n+]2ccc(c3ccccc32)NCCCCCN1 [UCL 1848],KCNN (SK) channel blocking specificity,[1],nonspecific KCNN (SK) channel blockers
CN1CCc2cc3c(cc2[C@H]1[C@@H]1OC(=O)c2c1ccc1c2OCO1)OCO3 [bicuculline],KCNN (SK) channel blocking specificity,[1],nonspecific KCNN (SK) channel blockers
CCO [ethanol],dam's blood alcohol concentration,[2],140 to 300 mg/dL
"CC[C@H](C)[C@@H]1NC(=O)[C@@H]2CSSC[C@H](NC(=O)[C@H](Cc3ccccc3)NC(=O)[C@H](C)N)C(=O)N[C@@H](CC(N)=O)C(=O)N[C@@H](CC(C)C)C(=O)N[C@@H](CCCNC(=N)N)C(=O)N[C@@H](CCCNC(=N)N)C(=O)N[C@H]3CSSC[C@H](NC(=O)[C@H](CCC(=O)O)NC(=O)[C@H](CCC(=O)O)NC(=O)CNC1=O)C(=O)N[C@@H](CCCCN)C(=O)N[C@H](C(=O)N[C@H](C(=O)N1CCC[C@H]1C(=O)N[C@@H](Cc1ccc(O)cc1)C(N)=O)C(C)C)CSSC[C@H](NC(=O)[C@H](CO)NC(=O)[C@H](CC(C)C)NC(=O)[C@H](CCC(=O)O)NC3=O)C(=O)N[C@@H](CCCNC(=N)N)C(=O)N[C@@H](CO)C(=O)N[C@@H](CC(C)C)C(=O)NCC(=O)N[C@@H](CC(C)C)C(=O)N[C@@H](CC(C)C)C(=O)NCC(=O)N[C@@H](CCCCN)C(=O)N2 [tamapin] (H-AFCNLRRCELSCRSLGLLGKCIGEECKCVPY-NH2; disulfide 3-21, 8-26, 12-28)",crosses the blood brain barrier,[3],crosses the blood brain barrier
same,IC50,[4],50 nM
"apamin (CNCKAPETALCARRCQQH-NH2; disulfide 1-11, 3-15; UniProt P01500 28-45, looked up)",effect on learning,[5],promote learning
same,KCNN2 selectivity in words,[6],less selective KCNN2 blocker
same,KCNN (SK) channel blocking specificity,[1],nonspecific KCNN (SK) channel blockers
insulin,memory effect,[7],improving memory
mouse [D-Leu-4]OB3 [synthetic leptin-like peptide],"brain bioavailability, intranasal vs other methods (times)",[8],4 times
oxytocin,"efficacy, repeated doses",[9],inconsistent
same,"efficacy, single administration",[9],promising
"scyllatoxin (AFCNLRMCQLSCRSLGLLGKCIGDKCECVKH; UniProt P16341 1-31, looked up)",KCNN (SK) channel blocking specificity,[1],nonspecific KCNN (SK) channel blockers
